From US20100148126A1 (priority 2008, published 2010)

The molecules below were run against wild-type αHL protein pore (Staphylococcus aureus, UniProt P09616).
Sequence of wild-type αHL protein pore (P09616 27-319 limits assumed): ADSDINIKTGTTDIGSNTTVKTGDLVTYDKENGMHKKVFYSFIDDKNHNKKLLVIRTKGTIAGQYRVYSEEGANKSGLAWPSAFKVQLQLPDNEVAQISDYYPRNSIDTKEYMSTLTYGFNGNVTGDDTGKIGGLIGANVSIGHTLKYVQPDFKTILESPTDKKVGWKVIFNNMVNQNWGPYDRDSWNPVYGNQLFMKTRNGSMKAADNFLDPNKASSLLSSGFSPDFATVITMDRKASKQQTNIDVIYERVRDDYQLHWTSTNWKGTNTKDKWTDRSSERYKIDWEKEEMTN
Assay type: binding
With NH4Cl [NH4^+] the “mean amplitude of analyte-boromycin complex events” value (“mean amplitude” below) was 33.7±0.2 pA and the “τoff (mean dwell time) of analyte-boromycin complex” value (“τoff (mean dwell time)” below) was 75.0 ± 1.6 ms.
In the case of boromycin, the “increase of event mean dwell time in BMIM-Cl versus NaCl” value is reported as 2.6 fold.
In the case of `CCN(CC)CC.Cl` [TEA, triethylammonium chloride], the “mean amplitude” value is reported as 33.7±0.4 pA and the “τoff (mean dwell time)” value is reported as 60.6 ± 1.9 ms.
In the case of KCl [K^+], the “mean amplitude” value is reported as 33.6±0.3 pA and the “τoff (mean dwell time)” value is reported as 52.1 ± 0.3 ms.
`Cl.ClCCN1CCOCC1` [CM, 4-(2-chloroethyl)morpholine hydrochloride] was tested, and the “mean amplitude” value was 33.5±1.2 pA and the “τoff (mean dwell time)” value was 34.7 ± 0.6 ms.
`CCNCC.Cl` [DEA, diethylammonium chloride] was tested, and the “mean amplitude” value was 33.6±0.8 pA and the “τoff (mean dwell time)” value was 40.5 ± 0.5 ms.
